The numbers were not newly measured in paper PMC10842190 (ACS sensors, 2023), which cites them from elsewhere.

Series [1] concerns damaged collagen triple helices.

Turning to `O=C(O)[C@@H]1C[C@H](F)CN1` [H-flp-OH, (2S,4S)-4-fluoroproline], the “Toxicity to human cells” value in the series with human cells is listed as “not toxic”.

For the compound (Gly-Ser)2-Gly-(Hyp-flp-Gly)7, the “Annealing to damaged collagen triple helices” value in series [1] is given as “cannot anneal”.

Regarding (Gly-Ser)2-Gly-(flp-Hyp-Gly)7, the “Annealing to damaged collagen triple helices” value in series [1] is reported as “can anneal”.
